Measurements published in patent publication US8952024B2, “Herbicidal pyrimidone derivatives” (E I du Pont de Nemours and Company, priority 2009, dated 2015).

Assays:
Type in all cases: in vivo
[1] = test system: barnyardgrass (Echinochloa crus-galli); experiment: Test A pre-/postemergence plant response
In short: (§1)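 Visual injury rating on a 0–100 scale (0 = no effect, 100 = complete control) was made versus untreated controls after about ten days in the greenhouse. Compounds, formulated in a non-phytotoxic solvent mix containing surfactant, were sprayed preemergence onto loam/sand soil and postemergence onto one- to two-leaf plants.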

[2] = test system: morningglory (Ipomoea spp.); experiment: Test A pre-/postemergence plant response
In short: as §1

[3] = test system: large crabgrass (Digitaria sanguinalis); experiment: Test A pre-/postemergence plant response
In short: as §1

corn (Zea mays) = experiment: Test A pre-/postemergence plant response
In short: as §1

[4] = test system: pigweed (Amaranthus retroflexus); experiment: Test A pre-/postemergence plant response
In short: as §1

[5] = test system: wheat (Triticum aestivum); experiment: Test A pre-/postemergence plant response
In short: as §1

[6] = test system: giant foxtail (Setaria faberii); experiment: Test A pre-/postemergence plant response
In short: as §1

[7] = test system: velvetleaf (Abutilon theophrasti); experiment: Test A pre-/postemergence plant response
In short: as §1

[8] = test system: cocklebur (Xanthium strumarium); experiment: Test B pre-/postemergence plant response; conditions: for Cocklebur plant response rating (0 to 100 scale): 62 g ai/ha, 0 is no effect
In short: (§2)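 Compound in solvent + surfactant applied pre-em (loam/sand) or post-em (plants 2–18 cm, peat medium); greenhouse hold 13–15 days; visual 0–100 control score.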

[9] = test system: green foxtail (Setaria viridis); experiment: Test B pre-/postemergence plant response; conditions: for Foxtail, Green plant response rating (0 to 100 scale): 62 g ai/ha, 0 is no effect
In short: as §2

[10] = test system: giant foxtail (Setaria faberii); experiment: Test B pre-/postemergence plant response; conditions: for Foxtail, Giant plant response rating (0 to 100 scale): 62 g ai/ha, 0 is no effect
In short: as §2

[11] = Postemergence, 125 g ai/ha, 0 to 100 scale where 0 is no effect and 100 is complete control
[12] = Postemergence, 500 g ai/ha, visual injury, 0 to 100 scale (0 no effect, 100 complete control), approx. ten days
[13] = Preemergence, 125 g ai/ha, 0 to 100 scale, 0 = no effect, 100 = complete control
[14] = Preemergence, 500 g ai/ha, 0 to 100 scale, 0 = no effect, 100 = complete control
[15] = Postemergence, 31 g ai/ha, 0 to 100 scale (0 no effect, 100 complete control)
[16] = Postemergence, 125 g ai/ha, scale 0 to 100 (0 no effect, 100 complete control)
[17] = Postemergence, 250 g ai/ha, scale 0 to 100 (0 no effect, 100 complete control), 13 to 15 days
[18] = Postemergence, 500 g ai/ha, 0 to 100 scale, 0 = no effect, 100 = complete control, approx. ten days
[19] = Preemergence, 500 g ai/ha, visual injury, 0 to 100 scale (0 no effect, 100 complete control), approx. ten days
[20] = 31 g ai/ha, postemergence, scale 0 to 100, 0 is no effect, 100 is complete control
[21] = postemergence, 100 is complete control, 13 to 15 days
[22] = Postemergence, 125 g ai/ha, visual rating after 13 to 15 days, scale 0 (no effect) to 100 (complete control)
[23] = Postemergence, 250 g ai/ha, scale 0 to 100 (0 no effect, 100 complete control)

O=C1CCCC(O)=C1C(=O)c1cnc(-c2ccsc2)n(C2CCOCC2)c1=O [Compound 186]
Plant response rating, Barnyardgrass [1, 11]: 80 | Barnyardgrass plant response rating [1, 12]: 90 | Plant response rating, Barnyardgrass [1, 13]: 0 | Plant response rating, Barnyardgrass [1, 14]: 60 | Plant response rating, Morningglory [2, 11]: 100 | Morningglory plant response rating [2, 12]: 100 | Plant response rating, Morningglory [2, 13]: 20 | Plant response rating, Morningglory [2, 14]: 90 | Plant response rating, Crabgrass, Large [3, 11]: 90 | Crabgrass, Large plant response rating [3, 12]: 90 | Plant response rating, Crabgrass, Large [3, 13]: 30 | Plant response rating, Crabgrass, Large [3, 14]: 80 | Plant response rating, Corn (corn (Zea mays); [11]): 0 | Corn plant response rating (corn (Zea mays); [12]): 60 | Plant response rating, Corn (corn (Zea mays); [13]): 0 | Plant response rating, Corn (corn (Zea mays); [14]): 0 | Plant response rating, Pigweed [4, 11]: 100 | Pigweed plant response rating [4, 12]: 100 | Plant response rating, Pigweed [4, 13]: 50 | Plant response rating, Pigweed [4, 14]: 100 | Plant response rating, Wheat [5, 11]: 0 | Wheat plant response rating [5, 12]: 0 | Plant response rating, Wheat [5, 13]: 0 | Plant response rating, Wheat [5, 14]: 0 | Plant response rating, Foxtail, Giant [6, 11]: 80 | Foxtail, Giant plant response rating [6, 12]: 90 | Plant response rating, Foxtail, Giant [6, 13]: 20 | Plant response rating, Foxtail, Giant [6, 14]: 60 | Plant response rating, Velvetleaf [7, 11]: 100 | Velvetleaf plant response rating [7, 12]: 100 | Plant response rating, Velvetleaf [7, 13]: 60 | Plant response rating, Velvetleaf [7, 14]: 100 | Plant response rating, Cocklebur [8, 15]: 90 | Plant response rating, Cocklebur [8, 16]: 100 | Plant response rating, Cocklebur [8, 17]: 100 | Plant response rating, Foxtail, Green [9, 15]: 50 | Plant response rating, Foxtail, Green [9, 16]: 85 | Plant response rating, Foxtail, Green [9, 17]: 95 | Plant response rating, Foxtail, Giant [10, 15]: 75 | Plant response rating, Foxtail, Giant [10, 16]: 95 | Plant response rating, Foxtail, Giant [10, 17]: 95

CCCc1ncc(C(=O)C2=C(O)CCCC2=O)c(=O)n1-c1cccc(C)c1 [Compound 79]
Plant response rating, Barnyardgrass [1, 11]: 80 | Plant response rating, Barnyardgrass [1, 18]: 90 | Plant response rating, Barnyardgrass [1, 13]: 0 | Plant response rating, Barnyardgrass [1, 19]: 70 | Plant response rating, Morningglory [2, 11]: 100 | Plant response rating, Morningglory [2, 18]: 100 | Plant response rating, Morningglory [2, 13]: 0 | Plant response rating, Morningglory [2, 19]: 50 | Plant response rating, Crabgrass, Large [3, 11]: 80 | Plant response rating, Crabgrass, Large [3, 18]: 90 | Plant response rating, Crabgrass, Large [3, 13]: 50 | Plant response rating, Crabgrass, Large [3, 19]: 100 | Plant response rating, Corn (corn (Zea mays); [11]): 10 | Plant response rating, Corn (corn (Zea mays); [18]): 60 | Plant response rating, Corn (corn (Zea mays); [13]): 0 | Plant response rating, Corn (corn (Zea mays); [19]): 0 | Plant response rating, Pigweed [4, 11]: 100 | Plant response rating, Pigweed [4, 18]: 100 | Plant response rating, Pigweed [4, 13]: 100 | Plant response rating, Pigweed [4, 19]: 100 | Plant response rating, Wheat [5, 11]: 0 | Plant response rating, Wheat [5, 18]: 50 | Plant response rating, Wheat [5, 13]: 0 | Plant response rating, Wheat [5, 19]: 30 | Plant response rating, Foxtail, Giant [6, 11]: 50 | Plant response rating, Foxtail, Giant [6, 18]: 80 | Plant response rating, Foxtail, Giant [6, 13]: 0 | Plant response rating, Foxtail, Giant [6, 19]: 50 | Plant response rating, Velvetleaf [7, 11]: 100 | Plant response rating, Velvetleaf [7, 18]: 100 | Plant response rating, Velvetleaf [7, 13]: 70 | Plant response rating, Velvetleaf [7, 19]: 100 | Plant response rating, Cocklebur [8, 20]: 95 | Cocklebur plant response rating (0 to 100 scale) [8, 21]: 98 | Plant response rating, Cocklebur [8, 22]: 98 | Plant response rating, Cocklebur [8, 23]: 98 | Plant response rating, Foxtail, Green [9, 20]: 60 | Foxtail, Green plant response rating (0 to 100 scale) [9, 21]: 60 | Plant response rating, Foxtail, Green [9, 22]: 80 | Plant response rating, Foxtail, Green [9, 23]: 98 | Plant response rating, Foxtail, Giant [10, 20]: 70 | Foxtail, Giant plant response rating (0 to 100 scale) [10, 21]: 75 | Plant response rating, Foxtail, Giant [10, 22]: 95 | Plant response rating, Foxtail, Giant [10, 23]: 95

COCCOCCn1c(-c2ccccc2)ncc(C(=O)C2=C(O)CCCC2=O)c1=O [Compound 91]
Plant response rating, Barnyardgrass [1, 11]: 90 | Plant response rating, Barnyardgrass [1, 18]: 100 | Plant response rating, Barnyardgrass [1, 13]: 60 | Plant response rating, Barnyardgrass [1, 19]: 100 | Plant response rating, Morningglory [2, 11]: 100 | Plant response rating, Morningglory [2, 18]: 100 | Plant response rating, Morningglory [2, 13]: 20 | Plant response rating, Morningglory [2, 19]: 80 | Plant response rating, Crabgrass, Large [3, 11]: 90 | Plant response rating, Crabgrass, Large [3, 18]: 100 | Plant response rating, Crabgrass, Large [3, 13]: 90 | Plant response rating, Crabgrass, Large [3, 19]: 100 | Plant response rating, Corn (corn (Zea mays); [11]): 0 | Plant response rating, Corn (corn (Zea mays); [18]): 10 | Plant response rating, Corn (corn (Zea mays); [13]): 0 | Plant response rating, Corn (corn (Zea mays); [19]): 0 | Plant response rating, Pigweed [4, 11]: 100 | Plant response rating, Pigweed [4, 18]: 100 | Plant response rating, Pigweed [4, 13]: 90 | Plant response rating, Pigweed [4, 19]: 90 | Plant response rating, Wheat [5, 11]: 0 | Plant response rating, Wheat [5, 18]: 50 | Plant response rating, Wheat [5, 13]: 0 | Plant response rating, Wheat [5, 19]: 20 | Plant response rating, Foxtail, Giant [6, 11]: 80 | Plant response rating, Foxtail, Giant [6, 18]: 80 | Plant response rating, Foxtail, Giant [6, 13]: 40 | Plant response rating, Foxtail, Giant [6, 19]: 70 | Plant response rating, Velvetleaf [7, 11]: 100 | Plant response rating, Velvetleaf [7, 18]: 100 | Plant response rating, Velvetleaf [7, 13]: 100 | Plant response rating, Velvetleaf [7, 19]: 100 | Plant response rating, Cocklebur [8, 20]: 20 | Cocklebur plant response rating (0 to 100 scale) [8, 21]: 65 | Plant response rating, Cocklebur [8, 22]: 95 | Plant response rating, Cocklebur [8, 23]: 95 | Plant response rating, Foxtail, Green [9, 20]: 70 | Foxtail, Green plant response rating (0 to 100 scale) [9, 21]: 85 | Plant response rating, Foxtail, Green [9, 23]: 98 | Plant response rating, Foxtail, Giant [10, 20]: 85 | Foxtail, Giant plant response rating (0 to 100 scale) [10, 21]: 98 | Plant response rating, Foxtail, Giant [10, 23]: 98
